Results as given in US8940893B2, “Heteroaromatic compounds as BTK inhibitors” (Boehringer Ingelheim International GmbH, priority 2013, dated 2015).

Molecular target: full-length human His-tagged BTK (Homo sapiens (Human), UniProt Q06187)
Experiment: BTK HTRF assay (Cisbio KinEASE-TK)
Format: biochemical
Conditions: 6 nM BTK, 15 min preincubation at 28° C., 30 uM ATP
Method: BTK Assay An HTRF assay (Cisbio KinEASE-TK cat #62TKOPEC) was performed to quantitate the ability of test compounds to inhibit BTK mediated phosphorylation of substrate. […] Then, 1 uM of TK substrate-biotin and 30 uM ATP were added and incubated for an additional 30 minutes at 28° C. Phospohrylation was detected by adding 62.5 nM Streptavidin-XL665 and TK-Antibody Cryptate diluted 1:100 in HTRF detection buffer (Cisbio cat #62SDBRDF) and incubated for 60 minutes at RT. The plate was read on an Envision plate reader and the fluoresence is measured at 620 nm (cryptate) and 665 nm (XL665). A ratio is calculated (665/620) and converted to POC relative to control and blank wells. Assay Buffer: […]

Sequence of full-length human His-tagged BTK (Q06187 whole entry): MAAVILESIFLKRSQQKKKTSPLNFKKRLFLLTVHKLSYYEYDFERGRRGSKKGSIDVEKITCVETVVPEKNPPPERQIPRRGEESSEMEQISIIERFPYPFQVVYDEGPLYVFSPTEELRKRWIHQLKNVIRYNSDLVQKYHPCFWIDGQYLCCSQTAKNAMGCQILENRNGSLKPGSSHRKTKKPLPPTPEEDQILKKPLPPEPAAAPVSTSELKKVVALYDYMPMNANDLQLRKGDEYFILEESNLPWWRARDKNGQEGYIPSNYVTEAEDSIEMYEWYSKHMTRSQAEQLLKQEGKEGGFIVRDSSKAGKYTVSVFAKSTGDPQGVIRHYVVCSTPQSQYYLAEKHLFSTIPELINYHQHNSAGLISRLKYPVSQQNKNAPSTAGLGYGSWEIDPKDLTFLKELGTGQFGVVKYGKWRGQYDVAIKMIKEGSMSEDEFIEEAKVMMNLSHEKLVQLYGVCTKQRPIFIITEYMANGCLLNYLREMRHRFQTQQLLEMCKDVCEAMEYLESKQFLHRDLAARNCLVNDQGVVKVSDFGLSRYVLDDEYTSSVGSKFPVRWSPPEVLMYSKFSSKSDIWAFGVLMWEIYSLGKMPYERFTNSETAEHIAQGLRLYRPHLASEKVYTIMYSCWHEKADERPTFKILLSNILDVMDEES

SMILES | IC50
C=CC(=O)N1CC2(CC(n3nc(-c4ccc(Oc5ccccc5)cc4)c4c(N)ncnc43)C2)C1 [Example 1] | 1 nM
CN(C)C/C=C/C(=O)N1CC2(CC(n3nc(-c4ccc(Oc5ccccc5)cc4)c4c(N)ncnc43)C2)C1 [Example 2] | 1.8 nM
CC#CC(=O)N1CC2(CC(n3nc(-c4ccc(Oc5ccccc5)cc4)c4c(N)ncnc43)C2)C1 [Example 3] | 0.83 nM
Nc1ncnc2c1c(-c1ccc(Oc3ccccc3)cc1)nn2C1CC2(C1)CN(C(=O)C1CO1)C2 (stereo not shown) [Example 4] | 13 nM
C=CC(=O)N1CCC2(CC(n3nc(-c4ccc(Oc5ccccc5)cc4)c4c(N)ncnc43)C2)C1 (stereo not shown) [Example 5] | 0.87 nM
C=CC(=O)N1CC2(CC(n3nc(-c4ccc(-c5cnc(Cc6ccccc6)n(C)c5=O)cc4F)c4c(N)ncnc43)C2)C1 [Example 6] | 0.85 nM
CC#CC(=O)N1CC2(CC(n3nc(-c4ccc(Oc5ccccc5)nc4)c4c(N)ncnc43)C2)C1 [Example 7] | 1.1 nM
C=CC(=O)N1CC2(CC(n3nc(-c4ccc(Oc5ccccc5)nc4)c4c(N)ncnc43)C2)C1 [Example 8] | 2.4 nM
C/C=C/C(=O)N1CC2(CC(n3nc(-c4ccc(Oc5ccccc5)nc4)c4c(N)ncnc43)C2)C1 [Example 9] | 83 nM
CC#CC(=O)N1CC[C@]2(C1)C[C@@H](n1nc(-c3ccc(Oc4ccccc4)cn3)c3c(N)ncnc31)C2 [Example 13] | 0.74 nM
CN(C)C/C=C/C(=O)N1CC2(CC(n3nc(-c4ccc(Oc5ccccc5)cn4)c4c(N)ncnc43)C2)C1 [Example 15] | 32 nM
CN(C)C/C=C/C(=O)N1CC[C@]2(C1)C[C@@H](n1nc(-c3ccc(Oc4ccccc4)cn3)c3c(N)ncnc31)C2 [Example 16] | 8.1 nM
CN(C)C/C=C/C(=O)N1CC[C@]2(C1)C[C@H](n1nc(-c3ccc(Oc4ccccc4)cn3)c3c(N)ncnc31)C2 [Example 17] | 7.1 nM
